Values joined by “and” are separate entries in the source; they are usually repeats but may differ in a detail not shown here. Identical values can stand only once. “Also recorded” adds a separate entry of the source.
Experiments:
[1] = Acute toxicity in mice, single i.p. injection; conditions: mouse, in vivo, ip, Table 3, 1000 (*) or 500 (**) μmole/kg, read-out: acute toxicity (asterisk), lethality in 7 days
Experimental: A test of acute toxicity was also carried out, as follows. Two mice were each given a single i.p. injection of 100, 500, or 1000 μmole/kg of ligand dissolved in 0.5 to 1.0 ml of saline at pH=7.5. Sparingly soluble ligands, dispersed by sonication, were given as finely divided suspensions. After 7 days observation, the mice were killed, selected tissues were removed and fixed for histopathological examination, and unusual findings at autopsy were recorded.
^a Single or double asterisks indicate acutely toxic (50% to 100%
lethality) in 7 days after a single i.p. injection of 1000 or 500
μmole/kg, respectively.

transferrin = experiment: Removal of iron from transferrin; format: biochemical
Experimental: (§1) Removal of Iron From Transferrin: The effectiveness of 3HOPOCAM as a ferri ion chelator was evaluated in terms of its potential for removing iron from transferrin. In order to account for the effect of proton competitio in the ligand strength comparisons, the relative ironbinding abilities of the ligands were ranked by the pM value, defined as -log [Fe^+3 ] of pH 7.4 solution that is 10^-5 M in total ligand and 10^-6 M in total iron. The pM for 3HOPOCAM was determined (by binding competition experiments with EDTA) to be 21.7, about 4 to 14 units lower than the pM value for siderophores containing three bidentate catechol or hydroxamate groups. […] Ligands incorporating more than two "HOPO" groups should be effective in removing iron from transferrin at even lower concentrations.

[2] = Relative iron-binding ability (pM value) by binding competition with EDTA
Experimental: as §1

[3] = Iron removal bioassay in iron-loaded (transfused) mice; format: in vivo
Experimental: DFHOPOCAM was tested for its effectiveness in removing iron from iron-loaded mice. The mice tested had undergone three transfusions over five days of heat-treated canine red blood cells. Both low i.p. doses (about 20 mg/kg) and high doses (about 200 mg/kg) were administered, in aqueous solution.
Changes in splenic, hepatic, fecal and urinary iron in transfused
male mice treated with potential iron chelators for several days

[4] = Promotion of excretion of ^238 Pu(IV) in mice; format: in vivo; conditions: for Pu / actinide removal, in words: mouse, in vivo
Experimental: The novel chelating agents of the present invention were tested for their effectiveness in promoting excretion of ^238 Pu(IV) in mice as follows. Groups of five mice each received an intravenous injection of […] of ^238 Pu(IV) in citrate buffer, 9250 Bq/kg body wt. One hour later 30 μmole/kg of ligand (120 μmole/kg of monomeric ligands) was injected intraperitoneally in 0.5 ml of saline. The mice were killed 24 h after the Pu injection, frozen, and dissected after partial thawing. The ^238 Pu in skeleton, tissues, and separated excreta was determined by counting of the ^234 U L xrays.
^c Ligand was administered (30 μmole/kg, i.p.) at 1 hr and mice
were killed at 24 hr after injection (i.v.) of ^238 Pu(IV) citrate.
Dosage of monomers, HOPO--CO2 H and HOPO--COMe2, was 120

[5] = higher dose, about 200 mg/kg i.p.

## O=C(NCc1cc(CNC(=O)c2cccc(=O)n2O)cc(CNC(=O)c2cccc(=O)n2O)c1)c1cccc(=O)n1O [HOPO--MECAM]
[1]
  mortality at 168 h: 50 to 100%

## O=C(NCCCNC(=O)c1cccc(=O)n1O)c1cccc(=O)n1O [3-HOPOCAM]
transferrin
  concentration at which iron was removed from transferrin: approximately mM concentrations
transferrin; 30 min., 1.6 mM solution
  iron removed from transferrin: about 29%
[2]; pH 7.4, 10^-5 M total ligand, 10^-6 M total iron, competition with EDTA
  pM value (-log [Fe^+3 ]): 21.7

## CC(=O)N(O)CCCCCNC(=O)CCC(=O)N(O)CCCCCNC(=O)CCC(=O)N(O)CCCCCNC(=O)c1cccc(=O)n1O [DFHOPOCAM]
[3]; 20 mg/kg i.p.
  Number Survivors: 10/10
  Percent Iron Changes vs. Control, Feces: +21%
  Percent Iron Changes vs. Control, Liver: -28%
  Percent Iron Changes vs. Control, Spleen: -11%
  Percent Iron Changes vs. Control, Urine: +39%
  Potency vs. Standard: 4.5
  Toxic Signs: none
[3]; 200 mg/kg i.p.
  Number Survivors: 10/10
  Percent Iron Changes vs. Control, Feces: +4%
  Percent Iron Changes vs. Control, Liver: -59%
  Percent Iron Changes vs. Control, Spleen: -17%
  Percent Iron Changes vs. Control, Urine: +93%
  Potency vs. Standard: 0.8
[3]; about 20 and about 200 mg/kg i.p., daily excreta, five-day recovery period
  damage to excretory pathways from excess metabolic iron: reversal of most of the damage to excretory pathways
[3]; both low and high doses
  source of iron: predominantly the liver
[3]; dose not given
  Potency relative to Desferal: about 4.5
[3]; [5]
  behavior and major organs: not grossly affected
  change in fecal iron content, in words: little change in iron content
  change in urine volume: -6%
  decrease in liver iron: 59%
  depression of fecal output: 24%
  fall in liver weight: 14%
  fall in spleen iron content: 17%
  increase in spleen weight: 25%
  rise in urinary iron: 93%
[3]; higher dose, about 200 mg/kg i.p., compared with low dose
  decrease in water imbibition: about the same order of magnitude as that seen for the low dose
[3]; iron excretion
  major route of excretion: through the kidneys
[3]; low dose, about 20 mg/kg i.p.
  behavior: not affected
  change in organ (spleen) weight, in words: not accompanied by a significant change in organ weight
  decline in hepatic (liver) weight: 8%
  decline in splenic iron: 11%
  decrease in hepatic iron: 28%
  fall in fecal output: 8%
  increase in excretion of iron via the feces: 21%
  increase in spleen weight: 4%
  increase in urinary iron: 39%
  necropsy: size or color of major organs: failed to reveal any changes in the size or color of major organs
  stimulation of urine production: 24%
[3]; mouse, in vivo
  relative potency (highest fraction of iron excreted), ranking: greatest
[3]; of a number of compounds tested
  toxicity to the kidneys, ranking: least toxic to the kidneys
[4]; 24 hr
  newly injected Pu excreted in 24 hr: 86%
[4]
  Pu / actinide removal, in words: extremely effective; also recorded: most effective removal of such ions
[4]; listed as HOPOsubstituted desferrioxamine
  Pu / actinide removal, in words: most effective Pu removal agent

## O=C(O)CN(CCN(CC(=O)O)CC(=O)O)CCN(CC(=O)O)CC(=O)O [CaNa3 --DTPA, reference compound]
[4]; ligand 30 μmole/kg i.p. at 1 hr, killed 24 hr after Pu
  ^238 Pu Excreta (urine and feces, one value): 70% of injected ^238 Pu

## O=C(NCCCCN(CCCNC(=O)c1cccc(=O)n1O)C(=O)c1cccc(=O)n1O)c1cccc(=O)n1O [3,4-HOPOCAM]
[1]
  mortality at 168 h: 50 to 100%

## CC(=O)N(O)CCCCCNC(=O)CCC(=O)N(O)CCCCCNC(=O)CCC(=O)N(O)CCCCCN [Desferrioxamine, reference compound]
[3]; 250 mg/kg i.p.
  Number Survivors: 240/240 and 150/150
  Toxic Signs: none

## O=C(NCCCN(CCCCN(CCCNC(=O)c1cccc(=O)n1O)C(=O)c1cccc(=O)n1O)C(=O)c1cccc(=O)n1O)c1cccc(=O)n1O [3,4,3-HOPOCAM]
[1]
  mortality at 168 h: 50 to 100%

## transferrin: transferrin, iron source in the iron removal test
[2]; pH 7.4, assuming [HCO3^- ]=0.024M
  pM value (-log [Fe^+3 ]) of transferrin: about 23.6

— patent publication US4698431A, “Hydroxypyridonate chelating agents” (priority 1985, dated 1987)
